2 compounds from patent US20260041683A1, “Compounds with Anti-Acinetobacter Baumannii Activity” (University of Kentucky Research Foundation, priority 2022, published 2026) can be followed below.

Structures are written as SMILES. Converted amounts (≈) assume the structure as drawn. Where two headings read alike, the source gives them in different places. Where only a bound is given, the exact number is not on record here.

In general, MIC refers to the lowest concentration that inhibits growth of the organism.

Test [1] has as its system Ab ATCC 19606 (strain I). Put plainly: MIC determination (double dilution, Mueller-Hinton broth). The format is cell-based, Acinetobacter baumannii. The settings on record: for MIC: Acinetobacter baumannii, ATCC19606.
Test [2] concerns Ab ATCC BAA1605 (strain J, multidrug-resistant). Put plainly: MIC determination. The format is cell-based. The settings on record: Acinetobacter baumannii. In outline:
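Broth double-dilution MIC in Mueller-Hinton broth, 96-well plates, at least in duplicate. Inoculum: colonies grown overnight at 37 °C on MH plates, suspended to OD600 ~0.5 and diluted 1:1000 into serially doubly diluted compound.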

In test [3] the test system is Ab strain #274 (CDC and FDA AR Bank). In words: MIC determination. The settings on record: Acinetobacter baumannii; Ab AR Bank #274. Format: cell-based. As to the method: (§1) All bacterial strains listed above were stored at −80° C. All strains were streaked on Mueller-Hinton (MH) plates and allowed to grow at 37° C. overnight. Enough colonies were scraped from the plate and suspended in MH broth with vortexing to reach an attenuance at 600 nm (OD600) of ˜0.5. The resulting culture was diluted 1:1000 and added to the prepared serially doubly diluted compound solutions in 96-well plates. For M. smegmatis, a 1:100 dilution of the bacteria was done in MH. All MIC values were determined using 96-well plates with low evaporation seals at least in duplicate. For each row, one well was reserved for sterile control (which consisted of 200 μL of MH medium) and another well was reserved for growth control (which consisted of 100 μL of MH medium seeded with 100 μL of bacterial culture).
(§2) Then all 46 compounds were tested against a broad panel of all 41 Ab strains from the CDC and FDA Antibiotic Resistance (AR) Isolate Bank (Table 2; data shown for 2 representative compounds), which were all highly multidrug-resistant strains, including those resistant to colistin. […] The activity of the monohydrazides was not dependent on the extent (number of resistance mutations) or severity (antibiotic MIC) of resistance. All conclusions made from Table 1 remained valid for all compounds against these 41 additional Ab strains. […] This mechanism of action will be elucidated in the proposed studies.

Test [4] has as its system Ab strain #277 (CDC and FDA AR Bank). Put plainly: MIC determination. The format is cell-based. Conditions: Acinetobacter baumannii; Ab AR Bank #277. How it is done:
as §1, §2

Test [5] concerns Ab strain #278 (CDC and FDA AR Bank). In words: MIC determination. The format is cell-based. The settings on record: Acinetobacter baumannii; Ab AR Bank #278. How it is done:
as §1, §2

For test [6], the system named is Ab strain #279 (CDC and FDA AR Bank). Put plainly: MIC determination. The format is cell-based. Conditions: Acinetobacter baumannii; Ab AR Bank #279. How it is done:
as §1, §2

The test system of test [7] is Ab strain #283 (CDC and FDA AR Bank). In words: MIC determination. Format: cell-based. The settings on record: Acinetobacter baumannii; Ab AR Bank #283. As to the method: as §1, §2
Test [8] deals with Ab strain #284 (CDC and FDA AR Bank). In words: MIC determination. Format: cell-based. The settings on record: Acinetobacter baumannii; Ab AR Bank #284. As to the method: as §1, §2
For test [9], the system named is Ab strain #290 (CDC and FDA AR Bank). In words: MIC determination. The format is cell-based. The settings on record: Acinetobacter baumannii; Ab AR Bank #290. How it is done:
as §1, §2

In test [10] the test system is Ab strain #291 (CDC and FDA AR Bank). Put plainly: MIC determination. The format is cell-based. The settings on record: Acinetobacter baumannii; Ab AR Bank #291. As to the method: as §1, §2
For test [11], the system named is Ab strain #297 (CDC and FDA AR Bank). In words: MIC determination. The settings on record: Acinetobacter baumannii; Ab AR Bank #297. The format is cell-based. As to the method: as §1, §2
For test [12], the system named is Ab strain #299 (CDC and FDA AR Bank). In words: MIC determination. The format is cell-based. Conditions: Acinetobacter baumannii; Ab AR Bank #299. As to the method:
as §1, §2

In test [13] the test system is Ab strain #304 (CDC and FDA AR Bank). In words: MIC determination. The format is cell-based. Conditions: Acinetobacter baumannii; Ab AR Bank #304. As to the method: as §1, §2
Test [14] deals with Ab strain #306 (CDC and FDA AR Bank). Put plainly: MIC determination. The format is cell-based. The settings on record: Acinetobacter baumannii; Ab AR Bank #306. How it is done: as §1, §2
Test [15] deals with Ab strain #308 (CDC and FDA AR Bank). Put plainly: MIC determination. The format is cell-based. Conditions: Acinetobacter baumannii; Ab AR Bank #308. As to the method: as §1, §2
Test [16] concerns Ab strain #310 (CDC and FDA AR Bank). In words: MIC determination. The format is cell-based. The settings on record: Acinetobacter baumannii; Ab AR Bank #310. As to the method: as §1, §2
In test [17] the test system is all 43 strains of A. baumannii (41 CDC strains and 2 ATCC strains). In words: MIC value statistics for all A. baumannii strains. Format: cell-based, Acinetobacter baumannii. Conditions: of 43 A. baumannii strains. A digest of the protocol: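 Broth microdilution in MH broth against CDC AR Isolate Bank and ATCC strains. Inoculum from overnight MH plates (37 °C), suspended to OD600 ~0.5, then diluted 1:1000 into serial twofold compound dilutions. Sterile and growth controls included per row.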

Setting [18] is: Table 1, control strain, read-out: MIC Ab ATCC 19606.
Where [19] appears, read: Table 1, multidrug-resistant strain, read-out: MIC Ab ATCC BAA 1605.

As to `O=C(NNc1cccc(F)c1)c1cnccn1` [Compound 9a], the MIC in test [1] (setting [18]) was 0.5 mg/L (≈ 2.15 µM); in test [2] (setting [19]), 0.5 mg/L (≈ 2.15 µM); in [3], 1 mg/L (≈ 4.31 µM); in test [4], 1 mg/L (≈ 4.31 µM); in test [5], 1 mg/L (≈ 4.31 µM); in [6] it was 1 mg/L (≈ 4.31 µM). Moreover, the MIC in test [7] is 0.25 mg/L (≈ 1.08 µM); in test [8] it was 0.5 mg/L (≈ 2.15 µM); in test [9] it was 1 mg/L (≈ 4.31 µM); in test [10] it was 0.25 mg/L (≈ 1.08 µM); in test [11], 0.5 mg/L (≈ 2.15 µM); in test [12], 0.25 mg/L (≈ 1.08 µM). The MIC in test [13] is no more than 0.13 mg/L; in test [14] it was 0.5 mg/L (≈ 2.15 µM); in [15], 0.25 mg/L (≈ 1.08 µM); in test [16] it was 0.5 mg/L (≈ 2.15 µM). The “number of compound/strain combinations with MIC value 0.25 μg/mL” value in [17] was 11. In addition, the “number of compound/strain combinations with MIC value 0.5 μg/mL” value in test [17] amounted to 18. For the same compound, the “number of compound/strain combinations with MIC value 1 μg/mL” value in test [17] was determined as 10. Also, the “number of compound/strain combinations with MIC value ≤0.125 μg/mL” value in test [17] amounted to 4.
In the case of `O=C(NNc1ccc(Cl)cc1)c1ccc(F)cn1` [Compound 3e], the MIC was 1 mg/L (≈ 3.76 µM) in test [1] (setting [18]); 1 mg/L (≈ 3.76 µM) in test [1] (Table 5, Mueller-Hinton medium, I = A. baumannii ATCC 19606, read-out: MIC strain I); 0.0625 mg/L (≈ 0.235 µM) in test [2] (setting [19]); no more than 0.125 mg/L in test [2] (Table 5, Mueller-Hinton medium, J = A. baumannii BAA1605, read-out: MIC strain J); 0.5 mg/L (≈ 1.88 µM) in test [3]; 0.06 mg/L (≈ 0.226 µM) in test [4]. Further, the minimum inhibitory concentration (MIC) was 0.25 mg/L (≈ 0.941 µM) in test [5]; 0.25 mg/L (≈ 0.941 µM) in test [6]; 0.5 mg/L (≈ 1.88 µM) in [7]; 0.25 mg/L (≈ 0.941 µM) in test [8]; 0.125 mg/L (≈ 0.47 µM) in [9]; 0.06 mg/L (≈ 0.226 µM) in test [10]. Also, the minimal inhibitory concentration (MIC) in test [11] was 0.25 mg/L (≈ 0.941 µM); in test [12], 0.13 mg/L (≈ 0.489 µM); in test [13] it was 0.5 mg/L (≈ 1.88 µM); in test [14] it was 0.13 mg/L (≈ 0.489 µM); in test [15], 0.13 mg/L (≈ 0.489 µM); in [16], 0.25 mg/L (≈ 0.941 µM). The MIC under conditions used to generate biofilm in [1] (trypticase soy broth (TSB) medium) worked out at 0.5 mg/L (≈ 1.88 µM). Further, in test [17], the “number of compound/strain combinations with MIC value 0.25 μg/mL” value came out at 16. In addition, the “number of compound/strain combinations with MIC value 0.5 μg/mL” value in [17] is given as 10. For the same compound, the “number of compound/strain combinations with MIC value 1 μg/mL” value in [17] was 1. Besides, the “number of compound/strain combinations with MIC value ≤0.125 μg/mL” value in test [17] came to 16.
